# According to patent EP1199078A1, “ANALGESICS” (ONO PHARMACEUTICAL CO., LTD., priority 1999, dated 2000):
# Where a name gives a salt, the structure may show the parent alone.
# Assays:
# [1] = system: formalin model in rats; assay: Formalin test in rats, intrathecal injection; format: in vivo, Sprague-Dawley rats; conditions: for number of flinch: both doses, 2 or 20µg/10µl/rat intrathecally 10min prior to formalin, compared to vehicle treated group
# Method: (§1) Eight weeks old male Sprague-Dawley rats were used. According to the method of Yaksh et al., the rat was mounted on the brain stereotaxis apparatus under sodium pentobarbital anesthesia and a polyethylene tube filled with saline was threaded approximately 3cm into intraspinal side through the cisternal incision.
# A day after implantation, the rat had no hindlimb paralysis was administered 50µl of 5% formalin subcutaneously and was placed in the observational plastic cage immediately. Formalin injection time was regarded as 0min and for 1min every 5min until 60min, number of leg-up response (flinch) was counted. The compound of formula (IA-1) ((+)-trans-3-imino-5-methyl-7-chloro-2-azabicyclo[4.1.0]heptane Monohydrochloride) of the present invention was dissolved in saline, subsequently the dose of 2 or 20µg/10µl/rat was administered intrathecally via polyethylene tube 10min prior to the formalin injection.
# [2] = system: Bennett hyperalgesia model in rats; assay: Hyperalgesia to thermostimulus in Bennett model in rats (plantar test), intrathecal injection; format: in vivo, Sprague-Dawley rats
# Source text: as §1, with “Seven” for “Eight”, “al. (J.Physiol. Behav. Vol.17, pp.1031-1036, 1976),” for “al.,”, “about” for “approximately”
# A day after implantation, rats had no hindlimb paralysis were restrained in a prostrate position after induction of anesthetization with pentobarbital sodium. According to the method of Bennett and Xie et al. (Pain, Vol.33, pp.87-107, 1988), an incision of 2cm was cut along the skin of the femoral region of the right hindlimb, and the exposed sciatic nerve was constricted with 2 pieces of gut suture at 2 distal sites, and the incision was closed with a piece of silk suture. The left hindlimb was similarly operated on without performing any constriction of the sciatic nerve (sham-operated hindlimb).
# Six days after the operation, the response latency to nociceptive thermostimulus was determined with the plantar test device, and rats with hyperalgesia were selected for the drug evaluation study on next day. […] By using a digital timer installed in the plantar testing device, the interval (response latency) from initiation of illumination to the time required for the animal to lift the hindlimb in an attempt to escape was measured. […]
# [3] = system: allodynia model in rats; conditions: treatment of 50 µmol/kg, Neuroreport, Vol. 9, pp.367-372 (1998); cited from earlier work
compound,measurement,setting,value
"C[C@H]1CC(=N)N[C@@H]2[C@H](Cl)[C@@H]21 [IA-1, (+)-trans-3-imino-5-methyl-7-chloro-2-azabicyclo[4.1.0]heptane Monohydrochloride]",number of flinch,[1]; first phase (0-10min after formalin injection),decreased
same,analgetic effects,"[1]; formalin test in rats, summary statement",showed analgetic effects
same,number of flinch,[1]; second phase (10-60min after formalin injection),decreased
same,hyperalgesia to nociceptive thermostimulus,"[2]; 0.2, 2 or 20µg/10µl/rat intrathecally 20min prior to plantar test, compared to vehicle treated rats",improved
same,analgetic effects,"[2]; Bennett model in rats, summary statement",showed analgetic effects
COC(=O)[C@@H](N)CCCNC(=N)N[N+](=O)[O-] [L-NAME],effect on allodynia model,[3],showed effect
